Measured values as given in PMC8961646, “Fibroblast Activation Protein Specific Optical Imaging in Non-Small Cell Lung Cancer” (Frontiers in Oncology, 2022).
pIC50: −log10 of the molar value. Non-standard residues stand in square brackets, D forms with d. Residues, ends and D or L forms follow the SMILES beside them. *: point of attachment. 5FAM = O=C1OC2(c3ccc(O)cc3Oc3cc(O)ccc32)c2ccc(C(=O)*)cc21; MethylRed = CN(C)c1ccc(/N=N/c2ccccc2C(=O)*)cc1; AEEA = NCCOCCOCC(=O)O; βAla = NCCC(=O)O

Tests used:
rhFAP = target: T1, rhFAP (Homo sapiens, UniProt Q12884); assay: Probe cleavage by recombinant human FAP (fluorescence plate assay, MALDI confirmation); type: biochemical; settings: probe 5 µM; for Cleavage by rhFAP (fluorescence signal): rhFAP 0.1 µg/ml, TRIS buffer (pH 7.5), 20 µl, read 480/530 nm, n=3 run in triplicate; for FAP specificity (over PREP): rhFAP compared with rhPREP, each 0.1 µg/ml
T1 construct: purchased R&D Systems
T1 sequence (Q12884 26-760 limits assumed): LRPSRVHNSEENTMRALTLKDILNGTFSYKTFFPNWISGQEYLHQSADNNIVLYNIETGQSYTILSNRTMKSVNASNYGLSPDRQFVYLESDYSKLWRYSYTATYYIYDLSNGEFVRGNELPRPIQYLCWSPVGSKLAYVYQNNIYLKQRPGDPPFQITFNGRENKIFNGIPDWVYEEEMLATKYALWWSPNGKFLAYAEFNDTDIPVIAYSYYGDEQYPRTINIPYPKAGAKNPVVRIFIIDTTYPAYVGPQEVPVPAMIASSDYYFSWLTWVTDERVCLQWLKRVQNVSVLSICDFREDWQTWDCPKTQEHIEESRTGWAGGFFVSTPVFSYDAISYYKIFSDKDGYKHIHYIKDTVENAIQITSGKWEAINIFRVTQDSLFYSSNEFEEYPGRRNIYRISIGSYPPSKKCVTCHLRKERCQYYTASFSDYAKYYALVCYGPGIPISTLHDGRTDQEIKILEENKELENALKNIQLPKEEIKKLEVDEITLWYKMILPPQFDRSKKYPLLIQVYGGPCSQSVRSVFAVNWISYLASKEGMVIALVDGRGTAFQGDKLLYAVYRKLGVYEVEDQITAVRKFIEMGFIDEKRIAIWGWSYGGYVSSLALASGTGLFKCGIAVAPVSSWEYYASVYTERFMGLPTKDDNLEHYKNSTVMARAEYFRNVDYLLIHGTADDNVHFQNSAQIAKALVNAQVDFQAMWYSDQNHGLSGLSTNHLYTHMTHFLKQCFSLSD

DPP-IV = settings: cited from earlier work
From the text: As starting point for our study, a peptide sequence previously published within a FAP optical reporter was synthesised (GPGPNQ), which had been determined to be FAP specific over DPP-IV but had not been assessed against PREP ([24]). We synthesised the reported peptide sequence but for FRET pairing we utilised a Carboxyfluorescein (FAM) fluorophore with a Methyl Red quencher ( Figure 1A ) as an alternative to Cy5.5/QSY21. The peptide sequence was synthesized by Fmoc solid-phase peptide synthesis on ChemMatrix resin using Oxyma/DIC as the coupling combination. FAM was incorporated at the N-termi ...

[1] = system: NSCLC patient tissue samples; assay: Fluorescence intensity and lifetime imaging (FLIM) of ex vivo NSCLC tissue; design: species or system human; settings: Talabostat at a dilution of 1:1000 with FAP3 5 µM, N=5
Method: For imaging solutions, varying concentrations of rhFAP were prepared in blackened eppendorfs and FAP3 to a final concentration of 5µM added and imaged as below. For biological specimens, NSCLC patient tissue samples from surgical resection were used fresh or snap frozen and stored at -80°C until required. Small fragments (approx. 4mm^3) incubated at 37°C in a 96 well plate in phenyl-red free DMEM (Gibco) containing 10% FCS, 1% Penicillin-streptomycin and 1% L-Glutamine. For the tissue fragments to be used as inhibitor controls, we added Talabostat at a dilution of 1:1000. Samples were then imaged using a clinically approved fluorescence lifetime imaging system used in conjunction with an imaging fibre ([30]) providing a 400 x 400 µm field of view. The imaging system incorporates a pulsed supercontinuum laser source, in this case tuned for excitation at 488 nm, with an achromatic confocal laser scanning system and a time-resolved spectrometer. This spectrometer contains a 512 channel single photon avalanche diode (SPAD) sensor ([31]) allowing for the rapid collection of time resolved spectral fluorescence lifetime data. Fluorescence intensity and lifetime images were collected using an image resolution of 160 x 160 pixels over a 498 – 570 nm spectral range with an exposure time of 13 µs per pixel. This led to an imaging rate of ~3 frames per second.
For each condition, the tumour samples were imaged using a fibre placed at the surface of the tissue (baseline), and then again at 10-minute intervals following the additions of equimolar concentrations of probe +/- Inhibitor. For imaging solutions, the fibre was held within the solution and imaged every 5 minutes. Each condition and time-point data for both fluorescence intensity and lifetime were collected. Imaging sequences had non-relevant frames removed, and the entire field of view was analysed. Analysis was undertaken using a bespoke software suite utilising the rapid lifetime determination (RLD) method ([32]). […]

rhPREP = target: T2, rhPREP (Homo sapiens, UniProt P48147); assay: Probe cleavage by recombinant human PREP (fluorescence plate assay, MALDI confirmation); type: biochemical; settings: probe 5 µM, rhPREP 0.1 µg/ml, TRIS buffer pH 7.5, read 480/530 nm, n=3 run in triplicate
T2 construct: purchased R&D Systems
T2 sequence (P48147 1-710): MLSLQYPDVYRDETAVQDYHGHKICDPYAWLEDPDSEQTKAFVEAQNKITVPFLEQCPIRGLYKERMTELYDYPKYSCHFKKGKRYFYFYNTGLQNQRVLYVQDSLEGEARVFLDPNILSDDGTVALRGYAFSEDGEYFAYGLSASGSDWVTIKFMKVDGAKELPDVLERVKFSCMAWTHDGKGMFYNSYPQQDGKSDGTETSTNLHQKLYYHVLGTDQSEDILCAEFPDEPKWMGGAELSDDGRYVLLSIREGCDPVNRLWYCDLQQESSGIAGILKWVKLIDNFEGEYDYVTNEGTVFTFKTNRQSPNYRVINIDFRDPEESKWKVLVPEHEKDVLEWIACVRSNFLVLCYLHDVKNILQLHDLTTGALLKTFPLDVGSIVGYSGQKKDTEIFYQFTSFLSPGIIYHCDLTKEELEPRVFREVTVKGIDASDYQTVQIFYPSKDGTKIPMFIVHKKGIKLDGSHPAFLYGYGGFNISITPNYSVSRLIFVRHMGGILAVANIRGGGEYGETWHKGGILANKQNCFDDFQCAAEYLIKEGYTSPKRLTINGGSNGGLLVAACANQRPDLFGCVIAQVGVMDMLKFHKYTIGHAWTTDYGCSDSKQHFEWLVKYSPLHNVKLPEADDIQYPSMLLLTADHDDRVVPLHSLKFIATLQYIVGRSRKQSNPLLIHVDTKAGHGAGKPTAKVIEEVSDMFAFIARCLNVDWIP

FAP expressing tumours = settings: murine tumour models, NIR fluorescence; cited from earlier work
From the text: Prior studies investigating FAP as an optical probe target focussed on near infrared (NIR) fluorophores where signal can be detected with minimal intrinsic tissue autofluorescence. Li et al. designed an activatable NIR fluorescent probe (ANPFAP) for FAP which was composed of the NIR dye Cy5.5 and the quencher dye QSY21 which were linked by a peptide sequence which is cleaved specifically by FAP (KGPGPNQC) ([24]). […] Although not developed as an imaging optical ...

rhDPPIV = rhDPPIV (Homo sapiens, UniProt P27487); assay: Probe cleavage by recombinant human DPP-IV (exopeptidase activity); settings: probe 5 µM, rhDPPIV 0.1 µg/ml, TRIS buffer pH 7.5, read 480/530 nm, n=3 run in triplicate
rhDPPIV, sequence (P27487 29-766 limits assumed): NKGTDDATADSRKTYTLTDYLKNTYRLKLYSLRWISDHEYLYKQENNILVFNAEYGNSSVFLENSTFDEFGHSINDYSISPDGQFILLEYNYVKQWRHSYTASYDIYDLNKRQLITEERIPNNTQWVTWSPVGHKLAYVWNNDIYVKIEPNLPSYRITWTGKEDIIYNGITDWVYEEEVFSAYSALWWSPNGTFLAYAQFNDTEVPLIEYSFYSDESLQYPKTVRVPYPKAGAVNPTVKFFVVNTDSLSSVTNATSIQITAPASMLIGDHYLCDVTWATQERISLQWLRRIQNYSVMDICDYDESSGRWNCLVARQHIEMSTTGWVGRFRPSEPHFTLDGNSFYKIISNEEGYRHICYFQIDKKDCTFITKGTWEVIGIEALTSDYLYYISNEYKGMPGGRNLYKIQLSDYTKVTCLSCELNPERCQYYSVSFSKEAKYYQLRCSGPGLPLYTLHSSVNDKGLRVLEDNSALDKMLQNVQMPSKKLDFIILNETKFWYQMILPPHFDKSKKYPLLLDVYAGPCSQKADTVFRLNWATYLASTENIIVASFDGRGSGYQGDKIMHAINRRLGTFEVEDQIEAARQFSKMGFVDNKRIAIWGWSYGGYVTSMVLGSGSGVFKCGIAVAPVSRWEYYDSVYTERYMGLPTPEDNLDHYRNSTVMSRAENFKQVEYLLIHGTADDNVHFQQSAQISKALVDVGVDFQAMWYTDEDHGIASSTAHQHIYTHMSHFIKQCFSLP
Method: Recombinant human enzymes [rhFAP (R&D Systems), rhPREP (R&D Systems) and rhDPPIV (Biolegend)] were stored in stocks at -70°C and diluted as required to be used at final concentration of 0.1 µg/ml. Enzymes were aliquoted upon receipt from the supplier and new stocks made from a fresh aliquot as required.
Assays were undertaken in triplicate in blackened 384 well plates on ice prior to spectral reads. […] All wells contained a final volume of 20 µl to include buffers, inhibitors (if used), substrates and recombinant human enzymes (at a concentration of 0.1 µg/ml unless otherwise stated). […] Plates were sealed with an optical plate sealer (Biolegend) and were read in a preheated spectrophotometer (Synergy Biotek) in monochromator-based mode at 380/460 nm for control substrates and 480/530 nm for synthesised FAP probes.

Row | Molecule | Cleavage by rhFAP (fluorescence signal) (rhFAP) | FAP specificity (over PREP) (rhFAP) | Cleavage by rhPREP (fluorescence signal) (rhPREP) | other results
1 | C[C@H](O)[C@@H](NC(=O)[C@@H](N)CCCCNC(=O)c1ccccc1/N=N/c1ccc(N(C)C)cc1)C(=O)N1CCC[C@H]1C(=O)N[C@@H](CO)C(=O)N[C@@H](CCCCNC(=O)c1ccc2c(c1)C(=O)OC21c2ccc(O)cc2Oc2cc(O)ccc21)C(=O)NCCOCCOCC(=O)N[C@H](CCCCN)C(=O)NCCOCCOCC(=O)N[C@H](CCCCN)C(=O)NCCOCCOCC(=O)N[C@H](CCCCN)C(N)=O [FAP2DD-Thr] (H-K(MethylRed)[dT]PSK(5FAM)[AEEA][dK][AEEA][dK][AEEA][dK]-NH2) | reduced signal | FAP specificity over PREP |  | 
2 | CN(C)c1ccc(/N=N/c2ccccc2C(=O)NCCCC[C@H](N)C(=O)N[C@H](Cc2ccc(O)cc2)C(=O)N2CCC[C@H]2C(=O)N[C@@H](CO)C(=O)N[C@@H](CCCCNC(=O)c2ccc3c(c2)C(=O)OC32c3ccc(O)cc3Oc3cc(O)ccc32)C(=O)NCCOCCOCC(=O)N[C@H](CCCCN)C(=O)NCCOCCOCC(=O)N[C@H](CCCCN)C(=O)NCCOCCOCC(=O)N[C@H](CCCCN)C(N)=O)cc1 [FAP2ED-Tyr] (H-K(MethylRed)[dY]PSK(5FAM)[AEEA][dK][AEEA][dK][AEEA][dK]-NH2) | loss of FAP activity |  |  | 
3 | CC(C)[C@H](N)C(=O)N1CCC[C@H]1B(O)O [Talabostat, Val-boroPro, reference compound] |  |  |  | pIC50 (DPP-IV): 8.40; Inhibition of FAP3 intensity and lifetime change in NSCLC tissue [1]: abrogated
4 | CN(C)c1ccc(/N=N/c2ccccc2C(=O)NCCCC[C@H](N)C(=O)N[C@H](CO)C(=O)N2CCC[C@H]2C(=O)N[C@@H](CO)C(=O)N[C@@H](CCCCNC(=O)c2ccc3c(c2)C(=O)OC32c3ccc(O)cc3Oc3cc(O)ccc32)C(=O)NCCOCCOCC(=O)N[C@H](CCCCN)C(=O)NCCOCCOCC(=O)N[C@H](CCCCN)C(=O)NCCOCCOCC(=O)N[C@H](CCCCN)C(N)=O)cc1 [FAP2CD-Ser] (H-K(MethylRed)[dS]PSK(5FAM)[AEEA][dK][AEEA][dK][AEEA][dK]-NH2) | highest rate of cleavage | FAP specificity over PREP | without PREP cleavage | Cleavage by rhFAP (fluorescence signal) (rhFAP; listed as D-Ser): reduced signal
5 | KGPGPNQC [ANPFAP] |  |  |  | Signal in FAP expressing tumours (FAP expressing tumours): higher signal
6 | CC(C)[C@H](NC(=O)[C@@H](N)CCCCNC(=O)c1ccccc1/N=N/c1ccc(N(C)C)cc1)C(=O)N[C@H](CO)C(=O)N1CCC[C@H]1C(=O)N[C@@H](CO)C(=O)N[C@@H](CCC(N)=O)C(=O)NCC(=O)N[C@@H](CCCCNC(=O)c1ccc2c(c1)C(=O)OC21c2ccc(O)cc2Oc2cc(O)ccc21)C(=O)NCCOCCOCC(=O)N[C@H](CCCCN)C(=O)NCCOCCOCC(=O)N[C@H](CCCCN)C(=O)NCCOCCOCC(=O)N[C@H](CCCCN)C(N)=O [FAP-sP, reference compound] (H-K(MethylRed)V[dS]PSQGK(5FAM)[AEEA][dK][AEEA][dK][AEEA][dK]-NH2) |  | demonstrated FAP specificity | no rhPREP cleavage | Cleavage by DPP-IV (exopeptidase activity, fluorescence signal) (rhDPPIV): no cleavage

Second part, led by results:

Row | Cleavage by rhFAP (fluorescence signal) (rhFAP) | FAP specificity (over PREP) (rhFAP) | Cleavage by rhPREP (fluorescence signal) (rhPREP) | Molecule | other results
7 | reduced signal | FAP specificity over PREP |  | CN(C)c1ccc(/N=N/c2ccccc2C(=O)NCCCC[C@H](N)C(=O)NCCC(=O)N2CCC[C@H]2C(=O)N[C@@H](CO)C(=O)N[C@@H](CCCCNC(=O)c2ccc3c(c2)C(=O)OC32c3ccc(O)cc3Oc3cc(O)ccc32)C(=O)NCCOCCOCC(=O)N[C@H](CCCCN)C(=O)NCCOCCOCC(=O)N[C@H](CCCCN)C(=O)NCCOCCOCC(=O)N[C@H](CCCCN)C(N)=O)cc1 [FAP2Fβ-Ala] (H-K(MethylRed)[βAla]PSK(5FAM)[AEEA][dK][AEEA][dK][AEEA][dK]-NH2) | 
8 | reduced signal | FAP specificity over PREP |  | C[C@@H](NC(=O)[C@@H](N)CCCCNC(=O)c1ccccc1/N=N/c1ccc(N(C)C)cc1)C(=O)N1CCC[C@H]1C(=O)N[C@@H](CO)C(=O)N[C@@H](CCCCNC(=O)c1ccc2c(c1)C(=O)OC21c2ccc(O)cc2Oc2cc(O)ccc21)C(=O)NCCOCCOCC(=O)N[C@H](CCCCN)C(=O)NCCOCCOCC(=O)N[C@H](CCCCN)C(=O)NCCOCCOCC(=O)N[C@H](CCCCN)C(N)=O [FAP2BD-Ala] (H-K(MethylRed)[dA]PSK(5FAM)[AEEA][dK][AEEA][dK][AEEA][dK]-NH2) | 
9 | FAP activity was absent |  | demonstrated cleavage by PREP | C[C@H](NC(=O)[C@@H](N)CCCCNC(=O)c1ccccc1/N=N/c1ccc(N(C)C)cc1)C(=O)N1CCC[C@H]1C(=O)N[C@@H](CO)C(=O)N[C@@H](CCCCNC(=O)c1ccc2c(c1)C(=O)OC21c2ccc(O)cc2Oc2cc(O)ccc21)C(=O)NCCOCCOCC(=O)N[C@H](CCCCN)C(=O)NCCOCCOCC(=O)N[C@H](CCCCN)C(=O)NCCOCCOCC(=O)N[C@H](CCCCN)C(N)=O [FAP2AAla] (H-K(MethylRed)APSK(5FAM)[AEEA][dK][AEEA][dK][AEEA][dK]-NH2) | 
